The source made the active and inactive calls. No rule for the calls is given here.
System: GENE-TOX genotoxicity assays, various organisms and cells
Test: GENE-TOX mutagenicity studies
Details: for call: Assay Type: In vivo carcinogenicity studies
[1] = Species/Cell Type: Salmonella typhimurium (one or more of the five standard strains: TA98, TA100, TA1535, TA1537, and TA1538), Assay Type: Histidine reverse gene mutation, Ames assay, Assay Code: SAL+*, Activation: With metabolic activation, Evaluation Type: Evaluation A (Pre-1980)
[2] = Species/Cell Type: Nonhuman, Assay Code: CCG+, Evaluation Type: Evaluation A (Pre-1980)
[3] = Species/Cell Type: Salmonella typhimurium (one or more of the five standard strains: TA98, TA100, TA1535, TA1537, and TA1538), Assay Type: Histidine reverse gene mutation, Ames assay, Assay Code: SAL+, Evaluation Type: Evaluation A (Pre-1980)

COc1c(Cl)ccc2oc3cc4c(c(OC)c3c(=O)c12)[C@@H]1C=CO[C@@H]1O4
mutagenic call [1]: active; positive

C=CCOC(=O)CC(C)C
call [2]: active; positive

CCCCCCN(N=O)C(N)=O
mutagenic call [3]: active; positive

CCCCN(N=O)C(=O)OCC
call [2]: active; positive
mutagenic call (Species/Cell Type: Nonhuman, Assay Type: Sister-chromatid exchange (SCE) in vitro, Assay Code: SC2+, Evaluation Type: Evaluation A (Pre-1980)): active; positive

O[C@@H]([C@H](O)[C@H](O)CBr)[C@H](O)CBr
mutagenic call (Species/Cell Type: Nonhuman, Assay Type: Sister-chromatid exchange (SCE) in vivo, Assay Code: SC3+D, Dose Response: With dose response, Evaluation Type: Evaluation B (Post-1980)): active; positive

CCN(CC)c1ccc(N=Nc2ccccc2C(=O)O)cc1
mutagenic call (Species/Cell Type: Drosophila melanogaster, Assay Type: Sex-linked recessive lethal gene mutation, Assay Code: SRLT, Evaluation Type: Evaluation A (Pre-1980)): no conclusion

O=C(COc1ccc(Br)cc1CN1CCOCC1)N/N=C/c1ccccc1
mutagenic call (Species/Cell Type: Saccharomyces cerevisiae, Assay Type: Reverse gene mutation, Assay Code: YERT, Evaluation Type: Evaluation A (Pre-1980)): no conclusion

CC(=O)Nc1ccccc1
mutagenic call (Species/Cell Type: Human, Assay Type: Sister-chromatid exchange (SCE) in vitro, Assay Code: SC1T, Evaluation Type: Evaluation B (Post-1980)): no conclusion
mutagenic call (Species/Cell Type: Salmonella typhimurium (one or more of the five standard strains: TA98, TA100, TA1535, TA1537, and TA1538), Assay Type: Histidine reverse gene mutation, Ames assay, Assay Code: SALT, Evaluation Type: Evaluation A (Pre-1980)): no conclusion
mutagenic call (Species/Cell Type: Salmonella typhimurium, Assay Type: Forward and reverse gene mutation, host-mediated assay, Assay Code: HMA-, Evaluation Type: Evaluation A (Pre-1980)): inactive; negative

CCOC(=O)N(C)C(=O)CSP(=S)(OCC)OCC
mutagenic call (Species/Cell Type: Bacillus subtilis (H17 vs M45), Assay Type: Rec-assay, spot test, DNA effects (bacterial DNA repair), Assay Code: REWT, Evaluation Type: Evaluation A (Pre-1980)): no conclusion

CCN(CC)CCCNC(=O)C(=O)N/N=C/c1ccc([N+](=O)[O-])o1
mutagenic call (Species/Cell Type: Escherichia coli WP2 UVRA, Assay Type: Tryptophan reverse gene mutation, Assay Code: WPU+D, Dose Response: With dose response, Evaluation Type: Evaluation A (Pre-1980)): active; positive

CC1=C[C@H]2[C@@]3(O)[C@H](C)[C@@H](O)[C@]4(O)[C@H]([C@@H]3C=C(CO)C[C@]2(O)C1=O)C4(C)C
mutagenic call (Species/Cell Type: Escherichia coli polA (W3119 vs P3478), Assay Type: Rec-assay, DNA effects (bacterial DNA repair), Assay Code: RE1T, Evaluation Type: Evaluation A (Pre-1980)): no conclusion
mutagenic call (Species/Cell Type: Saccharomyces cerevisiae, Assay Type: Mitotic recombination or gene conversion, Assay Code: YEH-, Evaluation Type: Evaluation A (Pre-1980)): inactive; negative

CCN(Cc1ccc(CN(CC)C(=O)C(Cl)Cl)cc1)C(=O)C(Cl)Cl
mutagenic call (Species/Cell Type: Human, Sex: Male, Assay Type: Sperm morphology, Assay Code: SPH+, Evaluation Type: Evaluation A (Pre-1980)): active; positive

COc1cc(C)c(-c2csc(N(C)C(=O)Nc3ccc(Cl)cc3)n2)cc1OC
mutagenic call (Species/Cell Type: Salmonella typhimurium, Assay Type: Forward and reverse gene mutation, host-mediated assay, Assay Code: HMA+, Evaluation Type: Evaluation A (Pre-1980)): active; positive

CN(C)N
mutagenic call (Species/Cell Type: Human diploid fibroblasts, Assay Type: Unscheduled DNA synthesis (UDS) in vitro, DNA effects, Assay Code: UDH-*, Activation: With metabolic activation, Evaluation Type: Evaluation A (Pre-1980)): inactive; negative
mutagenic call (Species/Cell Type: Mammalian polychromatic erythrocytes, Assay Type: Micronucleus test, chromosome aberrations, Assay Code: MNTT, Evaluation Type: Evaluation A (Pre-1980)): no conclusion
mutagenic call (Species/Cell Type: Mouse lymphoma (L5178Y) cells, Assay Type: Forward gene mutation at the thymidine kinase (TK) locus, chromosome aberrations, Assay Code: L51-*, Activation: With metabolic activation, Evaluation Type: Evaluation A (Pre-1980)): inactive; negative
mutagenic call (Species/Cell Type: Mouse, Sex: Male, Assay Type: Sperm morphology, Assay Code: SPI-, Evaluation Type: Evaluation A (Pre-1980)): inactive; negative
call [2]: active; positive
mutagenic call (Species/Cell Type: Rodents, Sex: Male, Assay Type: Dominant lethal test, Assay Code: DLT-, Evaluation Type: Evaluation A (Pre-1980)): inactive; negative
mutagenic call (Species/Cell Type: Saccharomyces cerevisiae, Assay Type: Mitotic recombination or gene conversion, Assay Code: YEC-, Evaluation Type: Evaluation A (Pre-1980)): inactive; negative
mutagenic call [1]: active; positive
mutagenic call (Species/Cell Type: Syrian hamster embryo (SA7/SHE) cells, Assay Type: Cell transformation, viral enhanced, Assay Code: CT7+, Evaluation Type: Evaluation A (Pre-1980)): active; positive

c1ccc2c(c1)-c1cc3ccccc3cc1[C@H]1O[C@@H]21
mutagenic call (Species/Cell Type: Chinese hamster lung (V79) cells, Assay Type: Forward gene mutation at the HPRT or ouabain locus, Assay Code: V79+, Evaluation Type: Evaluation A (Pre-1980)): active; positive
mutagenic call (Species/Cell Type: Drosophila melanogaster, Assay Type: Sex-linked recessive lethal gene mutation, Assay Code: SRL+, Evaluation Type: Evaluation A (Pre-1980)): active; positive
mutagenic call (Species/Cell Type: Human diploid fibroblasts, Assay Type: Unscheduled DNA synthesis (UDS) in vitro, DNA effects, Assay Code: UDH+D, Dose Response: With dose response, Evaluation Type: Evaluation A (Pre-1980)): active; positive
mutagenic call (Species/Cell Type: Mouse prostate cells, Assay Type: Cell transformation, Assay Code: CTM+, Evaluation Type: Evaluation A (Pre-1980)): active; positive
call (Species/Cell Type: Nonhuman, Assay Code: CCG+L, Evaluation Type: Evaluation A (Pre-1980)): active; positive
mutagenic call (Species/Cell Type: Nonhuman, Assay Type: Sister-chromatid exchange (SCE) in vitro, Assay Code: SC2+, Evaluation Type: Evaluation B (Post-1980)): active; positive
mutagenic call [3]: active; positive
mutagenic call (Species/Cell Type: Syrian hamster embryo (SHE) cells, Assay Type: Cell transformation, clonal assay, Assay Code: CTC+, Evaluation Type: Evaluation A (Pre-1980)): active; positive
